Measured values: US6977251B2, “5-androstene-3β, 17α diol as an inhibitor of tumor growth” (priority 1997, dated 2005)
pIC50: −log10 of the molar value. Where two headings read alike, the source gives them in different places.

Columns and labels:
[1] = test system: ZR-75-1 cells; assay: cells; settings: for cell proliferation (3H-thymidine): six day period
Experimental: The ZR-75-1 cell line (passage 89) was obtained from the American Type Culture Collection (Rockville, Md.). The cells were cultured in RPMI-1640 medium containing 10% heat-inactivated fetal calf serum, 200 μM L-glutamine, […] HEPES, 1.5 U/ml penicillin, and 1.5 μg/ml streptomycin in 5% CO2 at 37° C. The cells were passaged twice weekly.
(§1) Cells were first seeded at initial density of 1×10^5 cells per ml in quadruplicates in 24 multi-well flat bottom plates (Costar). Cells were then allowed to adhere and grow in phenol red-free […] media supplemented with 10% heat-inactivated fetal calf serum (FCS), 200 μM L-glutamine, 10 mM HEPES, 2.5 U/ml penicillin and 2.5 μg/ml streptomycin in 5% CO2 at 37° C. After 48 hours, four wells were sacrificed and counted to determine plating efficiency. In the remaining wells, medium was removed by aspiration and cells in each well were exposed to the media containing the specified steroid. The controls containing only medium or medium with vehicle were also prepared. In all samples, medium was changed every 48 hours. At the pre-established time-point. Cells were removed by trypsinization and washed. Cell number and viability were determined by trypan blue exclusion using a hemocytometer. Parallel cultures were also run to determine cell proliferation.
(§2) For cell proliferation assays, cell suspensions were prepared by trypsinization of cells from cultures prepared in accord with methods described above. Cell viability was determined by trypan blue exclusion. The cells were then seeded in flat-bottom 96-well microtiter plates at a density of 2×10^3 cells/well and were allowed to rest for 48 hours in order to adhere. Non-adherent dead cells were removed by aspiration. Cells were then grown in media without phenol red. Some of the media contained supplements as indicated above. […] The cells were then grown for six days. Media was changed on the samples every 48 hours. On day 6, cells were pulsed with 1 μCi[…]-thymidine for the last 6 hours of incubation before harvesting onto glass filter using a HPD cell harvester (Cambridge Technology, Watertown, Mass.) and counted on a KLB scintillation counter.
ZR-75-1 cells (2×10^3) were treated as described above over a six day period with differing concentrations of αAED or with vehicle-only cultures. The medium was changed every 48 hours. Cells were pulsed with ^3H-thymidine for the last six hours of incubation.

[2] = test system: RAW 264.7
Experimental: as §2
Effects of αAED at doses of 50 ηM and 100 ηM doses on murine macrophage myeloma cells (RAW 264.7, obtained from the American Type Culture Collection) was studied.

[3] = test system: P388D1 cells; settings: RU486 at 0.5 μM and 1.0 μM
Experimental: as §2

[4] = test system: ZR-75-1 cells; settings: trypan blue exclusion
Experimental: as §1

Structure (SMILES)	antiproliferative effect on growth of ZR-75-1 cells ([1]; alone at 100 ηM)	proliferation of RAW 264.7 cells ([2]; 50 ηM)	proliferation of RAW 264.7 cells ([2]; 100 ηM)	cell proliferation in combination with RU486 ([1]; 0.1 μl concentrations of αAED with 0.5 μM RU486)	cell proliferation (3H-thymidine) ([1]; 6.25 ηM)	cell proliferation (3H-thymidine) ([1]; 12.5 ηM)	cell proliferation (3H-thymidine) ([1]; 50 ηM)	pIC50 ([1]; Homo sapiens, ZR-75-1, read-out: half-maximal dose of anti-proliferative effect)	maximal dose of anti-proliferative effect ([1]; ZR-75-1 cells, dose and time-dependent)	cell proliferation in the presence of estradiol ([1]; higher doses of αAED, 1 ηM estradiol, 6 day period)	concentration at which growth of ZR-75-1 cells was significantly inhibited ([1]; tritiated thymidine incorporation, in vitro)	cell proliferation in the presence of βAED ([1]; varied αAED, βAED constant at 2.5 ηM, six days)	cell proliferation in combination with RU486 ([1]; αAED with RU486 at 1 μM)	effect on growth of P388D1 cells in combination with RU486 [3]	cytotoxicity (cell count and viability) [4]
C[C@]12CC[C@H]3[C@@H](CC=C4C[C@@H](O)CC[C@@]43C)[C@@H]1CC[C@@H]2O [βAED, 5-androstene 3β,17β diol, reference compound]	did not have any antiproliferative effect														
C[C@]12CC[C@H]3[C@@H](CC=C4C[C@@H](O)CC[C@@]43C)[C@@H]1CC[C@H]2O [αAED, 5-androstene 3β,17α diol]		significant inhibition of proliferation	significant inhibition of proliferation	synergistic action to decrease proliferation of cells	increasing proliferation	decreasing cell proliferation	marked decrease	7.30	100 ηM	suppressed proliferation even in the presence of estradiol	≥ 12.5 ηM	decreased proliferation at all concentrations	synergism was shown to be even greater	increased effectiveness over use of one agent	not toxic to the cells
